Test systems include NCI/ADR-RES; SF-539; MOLT-4; SK-MEL-5; MCF7; MDA-MB-435; UO-31; OVCAR-4; HCT-116; KM12; A549; MDA-N; SN12C; SK-MEL-28; CAKI-1; M14; MDA-MB-231; HT-29; SK-MEL-2; HOP-92.
What all share (experiment): NCI tumour cell line growth inhibition, 48 h

Molecules are shown by their SMILES.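 Test compounds were applied to cells in 96-well plates for 48 hours at 5 doses. GI50: concentration for 50% inhibition of growth.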 Active and inactive are the calls of the source. Cut-off read from the data, not from the text of the source: active = GI50 up to about 1.1 µM and inactive = higher.

On to `CCN(CC)CCCNc1nncc2cc3c([nH]c4ccc(OC)cc43)c(C)c12`, for which the GI50 was > 100 µM (inactive) in the test with NCI/ADR-RES; 3.44 µM (inactive) with SF-539; 2.3 µM (inactive) in the test with MOLT-4; 14.7 µM (inactive) with SK-MEL-5; 2.56 µM (inactive) in the test on MCF7; 10.8 µM (inactive) in the test on MDA-MB-435. Also, the GI50 with UO-31 is 11.5 µM (inactive); in the test with OVCAR-4, 3.27 µM (inactive); with HCT-116, 3.38 µM (inactive); in the test with KM12, 4.2 µM (inactive); in the test on A549, 9.82 µM (inactive); in the test with MDA-N, 10.4 µM (inactive). Moreover, the GI50 with SN12C is 6.12 µM (inactive); with SK-MEL-28, 15.7 µM (inactive); in the test with CAKI-1 it was 11.5 µM (inactive); with M14, 12.9 µM (inactive); in the test with MDA-MB-231, 7.41 µM (inactive); in the test on HT-29, 3.4 µM (inactive). Also, the GI50 is 17.7 µM (inactive) in the test on SK-MEL-2 and 10.1 µM (inactive) in the test with HOP-92.

As for `COc1cccc(C2CC(C)(N3CCCC3)Oc3cc4c(cc32)OCO4)c1O` (stereo not given), the GI50 in the test with NCI/ADR-RES was 20.8 µM (inactive); in the test on SF-539 it was 19.4 µM (inactive); in the test with MOLT-4, 21.8 µM (inactive); in the test on SK-MEL-5, 12.4 µM (inactive); in the test on MCF7, 39.1 µM (inactive); in the test with MDA-MB-435, 4.39 µM (inactive). Also, the GI50 in the test on UO-31 is 32.5 µM (inactive); in the test with OVCAR-4, 48.1 µM (inactive); in the test on HCT-116, 13.2 µM (inactive); in the test on KM12 it was 22 µM (inactive); with A549, 31.9 µM (inactive); in the test on MDA-N, 2.54 µM (inactive). The GI50 with SN12C was 25.6 µM (inactive); in the test with SK-MEL-28, 22.5 µM (inactive); in the test with CAKI-1, 31.7 µM (inactive); in the test with M14, 17.3 µM (inactive); in the test with MDA-MB-231, 19.1 µM (inactive); in the test on HT-29, 19.1 µM (inactive). Besides, the GI50 with SK-MEL-2 was 16.5 µM (inactive); with HOP-92, 31.3 µM (inactive).

Take `Cc1cn(S(=O)(=O)c2ccccc2)c2c(OCc3ccccc3)cc(NS(C)(=O)=O)cc12`: the GI50 was 14.9 µM (inactive) in the test on NCI/ADR-RES; 38.8 µM (inactive) in the test on SF-539; 3.45 µM (inactive) in the test on MOLT-4; 4.35 µM (inactive) in the test with SK-MEL-5; 6.98 µM (inactive) in the test with MCF7; 9.64 µM (inactive) in the test on MDA-MB-435. Moreover, the GI50 is 17.7 µM (inactive) with UO-31; 6.35 µM (inactive) in the test on OVCAR-4; 9.12 µM (inactive) in the test with HCT-116; 10.9 µM (inactive) in the test on KM12; 9.82 µM (inactive) with A549; 10.7 µM (inactive) with MDA-N. Also, the GI50 was 13.7 µM (inactive) in the test on SN12C; 52.8 µM (inactive) in the test with SK-MEL-28; 72.3 µM (inactive) in the test with CAKI-1; 19.2 µM (inactive) in the test on M14; 9.66 µM (inactive) in the test on MDA-MB-231; 4.42 µM (inactive) with HT-29. Moreover, the GI50 in the test with SK-MEL-2 is 18.1 µM (inactive); in the test on HOP-92, 27.2 µM (inactive).

`CC1=NN(c2nc(N)nc(CBr)n2)C(C)(C)C1`: the GI50 in the test with NCI/ADR-RES is 17.7 µM (inactive); in the test with SF-539 it was 2.3 µM (inactive); with MOLT-4, 1.61 µM (inactive); in the test with SK-MEL-5, 11.3 µM (inactive); in the test on MCF7 it was 2.47 µM (inactive); in the test with MDA-MB-435, 11 µM (inactive). Besides, the GI50 was 0.384 µM (active) with UO-31; 7.4 µM (inactive) with OVCAR-4; 6.27 µM (inactive) with HCT-116; 10.7 µM (inactive) in the test on KM12; 12.6 µM (inactive) in the test with A549; 11.5 µM (inactive) with MDA-N. Also, the GI50 in the test on SN12C is 5.22 µM (inactive); in the test on SK-MEL-28 it was 13.7 µM (inactive); in the test on CAKI-1 it was 1.47 µM (inactive); in the test with M14, 5.79 µM (inactive); in the test with MDA-MB-231 it was 7.18 µM (inactive); in the test on HT-29, 4.98 µM (inactive). Also, the GI50 in the test on SK-MEL-2 is 12.9 µM (inactive); with HOP-92, 0.436 µM (active).

Values taken from ChEMBL document CHEMBL1201862, “PubChem BioAssay data set” (2004).
